Test results reported in ChEMBL document CHEMBL3817848, “Synthesis and in vitro α-chymotrypsin inhibitory activity of 6-chlorobenzimidazole derivatives” (Bioorg Med Chem, 2016).

Legend:
[1] = Inhibition of alpha-chymotrypsin (unknown origin) using N-succinyl-L-phenylalanine-p-nitroanilide as substrate preincubated for 25 mins by microplate reader method; design: species or system Homo sapiens
Homo sapiens = species: Homo sapiens; assay: Inhibition of alpha-chymotrypsin (unknown origin) using N-succinyl-L-phenylalanine-p-nitroanilide as substrate at 500 uM preincubated for 25 mins by microplate reader method
[2] = Competitive inhibition of alpha-chymotrypsin (unknown origin) using N-succinyl-L-phenylalanine-p-nitroanilide as substrate; design: species or system Homo sapiens
[3] = Mixed inhibition of alpha-chymotrypsin (unknown origin) using n-succinyl-l-phenylalanine-p-nitroanilide as substrate; design: species or system Homo sapiens

Compound	IC50 [1] [µM]	inhibition (Homo sapiens) [%]	Ki [2] [µM]	Ki [3] [µM]
Fc1ccccc1-c1nc2ccc(Cl)cc2[nH]1	118	> 50	79.3	–
Clc1ccc2[nH]c(-c3ccccc3)nc2c1	> 500	< 50	–	–
N#Cc1ccc(-c2nc3cc(Cl)ccc3[nH]2)cc1	> 500	< 50	–	–
CCOc1cc(-c2nc3ccc(Cl)cc3[nH]2)ccc1O	15.9	> 50	17.3	–
Clc1ccc2nc(-c3c(Cl)cccc3Cl)[nH]c2c1	96.4	> 50	99.8	–
Oc1ccc(-c2nc3ccc(Cl)cc3[nH]2)c(O)c1	34.6	> 50	33.3	–
CN(C)c1ccc(-c2nc3ccc(Cl)cc3[nH]2)cc1	24.2	> 50	17.5	–
Clc1ccc2nc(-c3cccnc3)[nH]c2c1	48.9	> 50	50.1	–
O=[N+]([O-])c1ccc(Cl)c(-c2nc3ccc(Cl)cc3[nH]2)c1	> 500	< 50	–	–
Clc1ccc(-c2nc3ccc(Cl)cc3[nH]2)c(Cl)c1	35.6	> 50	39.6	–
Clc1ccc2nc(-c3cccc4ccccc34)[nH]c2c1	20.9	> 50	25.3	–
COc1ccc(-c2nc3ccc(Cl)cc3[nH]2)cc1OC	14.8	> 50	16.4	–

Further lines, results first:

IC50 [1] [µM]	inhibition (Homo sapiens) [%]	Ki [2] [µM]	Ki [3] [µM]	Compound
471	< 50	–	–	O=[N+]([O-])c1ccc(-c2nc3cc(Cl)ccc3[nH]2)cc1
458	< 50	–	–	Clc1ccc2nc(-c3cccc(Br)c3)[nH]c2c1
93.1	> 50	71.4	–	Cn1c(-c2ccco2)nc2ccc(Cl)cc21
428	< 50	–	–	CC(C)c1ccc(-c2nc3ccc(Cl)cc3[nH]2)cc1
38.1	> 50	–	36.5	COc1cccc(-c2nc3ccc(Cl)cc3[nH]2)c1
486	< 50	–	–	Clc1ccc2[nH]c(/C=C/c3ccccc3)nc2c1
> 500	< 50	–	–	Cc1ccc(-c2nc3cc(Cl)ccc3[nH]2)cc1
> 500	< 50	–	–	Oc1ccccc1-c1nc2cc(Cl)ccc2[nH]1
